# Measured values taken from patent US20230138400A1, “METHODS AND PHARMACEUTICAL COMPOSITIONS FOR REPROGRAMING IMMUNE ENVIRONMENT IN A SUBJECT IN NEED THEREOF” (INSERM (INSTITUT NATIONAL DE LA SANTE ET DE LA RECHERCHE …, priority 2016, published 2023).
# What was measured:
# [1] = tested on: naive CD4 T cells isolated from the spleen of C57BL/6 mice; assay: Polarization of naive CD4 T cells (Th1, Th2, Treg, Th17 conditions) in presence of DDA, flow cytometry; format: cell-based, mouse
# Description: (§1) FIGS. 1A-E. Sorted naive CD4 T cells were isolated from the spleen of C57BL/6 mice and activated in the indicated Th1, Th2, Treg, or Th17 polarizing conditions as described in the “Materials and methods” section”. These cells were cultured in the presence of increasing concentrations of DDA. After 96 hours, the percentage of (A) Th1: CD4+Tbet+IFNg+, (B) Th2: CD4+GATA3+[…], (C) Treg: CD4+Foxp3+IL10+ and (D) Th17: CD4+RORgt+[…], cells was measured by flow cytometry. (E) Sorted naive CD8 T cells were isolated from the spleen of the C57BL/6 mice and activated with anti-CD3, anti-CD28 and recombinant IL2. After 96 hours, the percentage of cytotoxic T CD8+GranzymB+IFNg+ cells was measured by flow cytometry.
# (§2) FIGS. 2A-E. Sorted naive CD4 T cells isolated from the spleen of C57BL/6 mice were activated in Th1, Th2, Treg, or Th17 polarizing conditions as indicated in the “Materials and methods” section”. After 96 h, increasing concentrations of DDA was added on polarized CD4 T cells for 24 h. Then the percentage of (A) CD4+Tbet+IFNg+, (B) CD4+GATA3+[…], (C) CD4+Foxp3+IL10+ and (D) CD4+RORgt+[…] cells was measured by flow cytometry. (E) Sorted naïve CD8 T cells were isolated from the spleen of the C57BL/6 mice and activated with anti-CD3, anti-CD28 and recombinant IL2. After 96 h, increasing concentrations of DDA was added on activated CD8 T cells for 24 h. Then the percentage of cytotoxic T CD8+GranzymB+IFNg+ cells was measured by flow cytometry.
# Cells isolation. Single-cells leukocyte suspensions were obtained from spleens of C57BL/6 mice. Naive CD4 or CD8 T cells are isolated by depletion of memory CD4 or CD8 T cells and non-CD4 or non-CD8 T cells according the manufacturer's protocol from Miltenyi kit (Miltenyi biotec). Purities of CD4+CD44l^ow CD62L^high or CD8+CD44l^ow CD62L^high T cells after isolation were >98%
# Immune cell culture. Isolated CD4+ or CD8+ T cells were cultures in 96-well flat bottom plates (0.25×10^6 cells per wells) in 0.25 ml of complete RPMI 1640 media (10% FBS, 1% penicillin/Streptomycin, 1% sodium pyruvate, 1% HEPES and 50 μM b-mercaptoethanol) in the presence of 10 μg/ml plate-bound anti-mouse CD3 (2C11) and 2 μg/ml soluble α-CD28 (LEAF) in addition to 50 ng/ml of recombinant IL-2 (e-bioscience). DDA (synthesized by Affichem) diluted in the solvent vehicle was added at increasing concentration (0-1-10-100 and 1000 nM). Cells were cultured in polarizing Th1 (20 ng/ml of recombinant […] and 10 μg/ml of anti-IL4), Th2 (50 ng/ml of recombinant IL-4, 10 μg/ml of anti-IFNg), Th17 (10 ng/ml of recombinant TGF-b, 100 ng/ml of recombinant IL-6, 10 μg/ml of anti-IFN-g and 10 μg/ml of anti-IL4) or Treg (10 ng/ml of recombinant TGF-b, 10 μg/ml of anti-IFNg and 10 μg/ml of anti-IL4) conditions. All recombinant cytokines were purchased from Peprotech and antibodies were purchased from eBioscience. After 5 days of culture, cells were collected and analyzed by flow cytometry. To investigate the impact of DDA on polarization of CD4 or CD8 naive T cells, DDA or the solvent vehicle was added at the beginning of culture at Day 0 or at Day 4 and cells was analyzed at day 5 by flow cytometry.
# [2] = tested on: naive CD8 T cells isolated from the spleen of the C57BL/6 mice; assay: Activation of naive CD8 T cells (anti-CD3, anti-CD28, IL2) in presence of DDA, flow cytometry; format: cell-based, mouse
# Description: as §1, §2
# Cells isolation. Single-cells leukocyte suspensions were obtained from spleens of C57BL/6 mice. Naive CD4 or CD8 T cells are isolated by depletion of memory CD4 or CD8 T cells and non-CD4 or non-CD8 T cells according the manufacturer's protocol from Miltenyi kit (Miltenyi biotec). […]
# Immune cell culture. […] After 5 days of culture, cells were collected and analyzed by flow cytometry. To investigate the impact of DDA on polarization of CD4 or CD8 naive T cells, DDA or the solvent vehicle was added at the beginning of culture at Day 0 or at Day 4 and cells was analyzed at day 5 by flow cytometry.
# [3] = tested on: Bone marrow of WT or LXRαβKO mice; assay: Bone marrow dendritic cell differentiation (GM-CSF) from WT or LXRαβKO mice in presence of DDA; format: cell-based, mouse
# Description: FIGS. 11A-B. Bone marrow was isolated from the tibia and femur of WT or LXRαβKO mice and cultivated with 20 ng/ml GM-CSF and in presence of increasing concentrations of DDA. At day 3 and 5 half of medium was replaced by fresh medium containing GM-CSF. After 7 days of culture, the percentage of (A) differentiated CD11c+CD8a dendritic cell (B) mature CD11c+CD8a+ dendritic cells (CD11c+CD8a+CD86hi CCR7hi) was measured by flow cytometry and expressed relative to the control.
# FIG. 12. Bone marrow was isolated from the tibia and femur of WT or LXRαβKO mice and cultivated with 20 ng/ml GM-CSF and in presence of increasing concentrations of DDA. At day 3 and 5 half of medium was replaced by fresh medium containing GM-CSF. After 7 days of culture, the mean of florescence (MFI) of MHC class II expressed on the surface of CD11c dendritic cells: CD11c+H2db+ was measured by flow cytometry and expressed relative to the control.
# [4] = tested on: tumor cells implanted in mice; conditions: de Medina et al., Nat Commun. 2013; cited from earlier work
# [5] = WT, 7 days of culture (FIG. 11)
smiles,measurement,setting,value
"CC(C)CCCC(C)[C@H]1CCC2C3C[C@@H](NCCc4cnc[nH]4)[C@@]4(O)C[C@@H](O)CC[C@]4(C)C3CC[C@@]21C (some centres unmarked) [DDA, 5a-hydroxy-6b-[2-(1H-imidazol-4-yl)ethylamino]cholestan-3b-ol]",concentration from which differentiation of Th0 into Th1 is increased,"[1]; DDA added at day 0, Th1 polarizing conditions, 96 h, CD4+Tbet+IFNg+",≥ 1 nM
same,Th2 differentiation,"[1]; DDA added at day 0, Th2 polarizing conditions",no effect
same,concentration from which differentiation of Th0 into Th17 is increased,"[1]; DDA added at day 0, Th17 polarizing conditions, 96 h",≥ 100 nM
same,Treg differentiation,"[1]; DDA added at day 0, Treg polarizing conditions",no effect
same,concentration from which differentiation of Th0 into Th1 is increased,[1]; DDA added at day 4 for 24 h,≥ 1 nM
same,differentiation into Th2,[1]; DDA added at day 4 for 24 h,no effect
same,differentiation into Th17,[1]; DDA added at day 4 for 24 h,no effect
same,differentiation of Th0 into Treg,[1]; DDA added at day 4 for 24 h (FIG. 2),inhibits
same,activated phenotype of CD4 T cells (CD44 at their surface),"[1]; day 4, data not shown",upregulation of CD44
same,concentration from which differentiation of naïve CD8 T cells into functional cytotoxic CD8 T cells is increased,"[2]; DDA added at day 0, 96 h, CD8+GranzymB+IFNg+",≥ 10 nM
same,concentration from which differentiation of naïve CD8 T cells into functional cytotoxic CD8 T cells is increased,[2]; DDA added at day 4 for 24 h,≥ 1 nM
same,CD8 T cells phenotype,[2]; data not shown,no significant effect
same,MHC II expression at the surface of CD11c dendritic cells,"[3]; 1 μM DDA, WT (FIG. 12)",increases
same,differentiation of CD11c into CD11c CD8a+ dendritic cells,[3]; [5],increases
same,maturation of CD11c CD8a+ dendritic cells (CD86hi CCR7hi),[3]; [5],increases
same,effect on MHC II expression at the surface of CD11c dendritic cells,[3]; in absence of LXR (LXRαβKO),abrogated
same,effect on differentiation and maturation of CD11c CD8a+ dendritic cells,[3]; in absence of LXR (LXRαβKO),abolished
same,animal survival,[4],improves animal survival
same,growth of tumor cells implanted in mice,[4],control the growth
same,infiltration of CD3+ T lymphocytes and CD11c+ dendritic cells,[4],increased infiltration
